Test results reported in patent US20200291018A1, “TAM KINASE INHIBITORS” (SYROS PHARMACEUTICALS, INC., priority 2017, published 2020).
pIC50: −log10 of the molar value.

Key:
FLT3 = biological target: T1, FLT3 (Homo sapiens, UniProt P36888); experiment: TR-FRET kinase activity assay, FLT3; type: biochemical; conditions: ATP at Km, 60 minutes
T1 sequence (P36888 27-993): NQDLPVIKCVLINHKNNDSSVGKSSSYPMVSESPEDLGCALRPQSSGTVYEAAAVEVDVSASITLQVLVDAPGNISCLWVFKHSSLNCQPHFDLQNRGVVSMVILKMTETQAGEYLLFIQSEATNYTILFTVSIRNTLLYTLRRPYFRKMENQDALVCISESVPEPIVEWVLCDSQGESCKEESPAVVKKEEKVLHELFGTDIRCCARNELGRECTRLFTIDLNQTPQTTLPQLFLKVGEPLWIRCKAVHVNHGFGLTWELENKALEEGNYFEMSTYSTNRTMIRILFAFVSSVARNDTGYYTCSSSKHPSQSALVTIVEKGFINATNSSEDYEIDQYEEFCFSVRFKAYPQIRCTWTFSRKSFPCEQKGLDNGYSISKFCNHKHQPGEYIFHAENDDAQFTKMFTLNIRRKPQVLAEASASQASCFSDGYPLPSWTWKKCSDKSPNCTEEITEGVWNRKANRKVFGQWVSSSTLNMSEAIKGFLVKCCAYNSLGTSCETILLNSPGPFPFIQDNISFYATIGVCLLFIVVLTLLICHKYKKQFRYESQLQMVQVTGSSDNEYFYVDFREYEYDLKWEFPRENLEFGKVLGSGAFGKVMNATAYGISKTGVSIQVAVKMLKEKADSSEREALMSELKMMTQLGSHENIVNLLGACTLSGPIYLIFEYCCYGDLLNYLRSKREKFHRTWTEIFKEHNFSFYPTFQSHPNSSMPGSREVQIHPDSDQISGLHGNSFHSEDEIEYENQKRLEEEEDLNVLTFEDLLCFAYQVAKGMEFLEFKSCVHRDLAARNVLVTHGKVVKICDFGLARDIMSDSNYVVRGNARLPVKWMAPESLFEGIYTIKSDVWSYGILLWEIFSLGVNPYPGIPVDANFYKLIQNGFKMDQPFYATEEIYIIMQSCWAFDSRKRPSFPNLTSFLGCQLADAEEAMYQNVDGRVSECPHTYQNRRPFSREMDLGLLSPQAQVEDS
Protocol: (§1) IC50 values for compound inhibition of AXL, FLT3, MERTK and TYRO3 activity were determined using a TR-FRET activity assay. A peptide substrate with a fluorescent label is phosphorylated on a tyrosine by each enzyme, where the now phosphorylated product is bound by a Europium-labeled antibody specific to that phosphorylation site. The proximity between the antibody and the substrate gives a signal known as TR-FRET. As the enzyme is inhibited by compound, less phosphorylated peptide product is made, causing a decrease in overall signal.
(§2) Activity assays were performed in a 384-well, small volume, black microplates in an active enzyme volume of 10 uL and final developed volume of 20 uL. Final assay conditions are 50 mM HEPES pH 7.5, 10 mM MgCl2, 1 mM EGTA, 0.01% Brij 35 and 1 mM DTT, all at RT. Enzyme, substrate-labeled peptide and compound are mixed, and then the reaction is initiated with the addition of ATP at Km concentration for each enzyme. The reaction is allowed to run 60 minutes and then quenched with a 12.5 mM EDTA (ethylenediamine tetraacetic acid) solution. The plate is then developed with the addition of Europium-labeled antibody for a final volume of 20 uL and is then incubated for 30 minutes in darkness. Plates are read in a PHERASTAR® plate reader. Data are analyzed in GraphPad PRISM.

TYRO3 = biological target: T2, TYRO3 (Homo sapiens, UniProt Q06418); experiment: TR-FRET kinase activity assay, TYRO3; type: biochemical; conditions: ATP at Km, 60 minutes
T2 sequence (Q06418 41-890): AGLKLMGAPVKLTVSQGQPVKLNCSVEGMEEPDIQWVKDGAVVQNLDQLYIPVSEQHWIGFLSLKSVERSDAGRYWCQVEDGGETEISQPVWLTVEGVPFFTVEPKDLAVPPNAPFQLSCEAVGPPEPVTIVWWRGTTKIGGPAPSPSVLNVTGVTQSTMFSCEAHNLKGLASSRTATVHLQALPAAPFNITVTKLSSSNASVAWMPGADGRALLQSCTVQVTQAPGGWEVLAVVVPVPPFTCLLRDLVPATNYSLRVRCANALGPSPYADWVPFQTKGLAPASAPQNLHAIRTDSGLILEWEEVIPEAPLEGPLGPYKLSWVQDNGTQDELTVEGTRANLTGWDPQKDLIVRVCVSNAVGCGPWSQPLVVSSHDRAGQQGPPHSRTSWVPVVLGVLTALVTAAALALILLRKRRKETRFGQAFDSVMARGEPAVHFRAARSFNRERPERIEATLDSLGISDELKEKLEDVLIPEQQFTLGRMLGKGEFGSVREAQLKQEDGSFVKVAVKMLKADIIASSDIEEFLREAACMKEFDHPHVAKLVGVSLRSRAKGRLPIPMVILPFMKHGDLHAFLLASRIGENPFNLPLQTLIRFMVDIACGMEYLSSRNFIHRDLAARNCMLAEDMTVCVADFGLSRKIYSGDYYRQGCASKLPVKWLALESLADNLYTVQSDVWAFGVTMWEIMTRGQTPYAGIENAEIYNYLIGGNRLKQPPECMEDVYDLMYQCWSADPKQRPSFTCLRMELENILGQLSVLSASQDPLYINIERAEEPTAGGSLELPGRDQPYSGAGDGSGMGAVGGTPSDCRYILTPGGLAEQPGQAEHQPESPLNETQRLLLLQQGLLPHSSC
Protocol: as §1, §2

| SMILES | pIC50 (FLT3) | pIC50 (TYRO3) |
| --- | --- | --- |
| O[C@H]1CC[C@H](c2cnc(OC3CCNCC3)c3cnc(N[C@@H]4CCCOC4)nc32)CC1 [Compound 232] | 6.00 to 7.00 | 6.00 to 7.00 |
| CC[C@H](C)Nc1ncc2c(OC3CCN(S(C)(=O)=O)CC3)ncc([C@H]3CC[C@H](O)CC3)c2n1 [Compound 233] | 6.00 to 7.00 | ≥ 7.00 |
| CC[C@H](C)Nc1ncc2c(=O)n(C3CCN(S(C)(=O)=O)CC3)cc([C@H]3CC[C@H](O)CC3)c2n1 [Compound 234] | 5.00 to 6.00 | ≥ 7.00 |
| CCOc1ncc([C@H]2CC[C@H](O)CC2)c2nc(N[C@@H](C)CC)ncc12 [Compound 235] | 6.00 to 7.00 | ≥ 7.00 |
| CCOc1ncc(CC2CCNCC2)c2nc(N[C@@H](C)CC)ncc12 [Compound 236] | 6.00 to 7.00 | 6.00 to 7.00 |
| CC[C@H](C)Nc1ncc2c(OC3C[C@H]4CC[C@@H](C3)O4)ncc([C@H]3CC[C@H](O)CC3)c2n1 (stereo partly drawn) [Compound 237] | 5.00 to 6.00 | 5.00 to 6.00 |
| CC[C@H](C)Nc1ncc2c(NC34CCC(O)(CC3)CC4)ncc([C@H]3CC[C@H](O)CC3)c2n1 [Compound 238] | 6.00 to 7.00 | 5.00 to 6.00 |
| CC[C@H](C)Nc1ncc2c(OC3CCN(C)CC3)ncc([C@H]3CC[C@H](O)CC3)c2n1 [Compound 239] | 5.00 to 6.00 | ≥ 7.00 |
| CC[C@H](C)Nc1ncc2c(C3CCN(C)CC3)ncc([C@H]3CC[C@H](O)CC3)c2n1 [Compound 240] | 5.00 to 6.00 | 6.00 to 7.00 |
| CC[C@H](C)Nc1ncc2c(OC(CO)CO)ncc([C@H]3CC[C@H](O)CC3)c2n1 [Compound 241] | 5.00 to 6.00 | ≥ 7.00 |
| COC[C@H](C)Nc1ncc2c(OC3CCOCC3)ncc(C3=CCC4(CC3)OCCO4)c2n1 [Compound 242] | 5.00 to 6.00 | 6.00 to 7.00 |
| COC[C@H](C)Nc1ncc2c(OC3CCOCC3)ncc(C3CCC4(CC3)OCCO4)c2n1 [Compound 243] | 5.00 to 6.00 | 5.00 to 6.00 |
| CCc1ncc([C@H]2CC[C@H](O)CC2)c2nc(N[C@@H](C)CC)ncc12 [Compound 244] | 5.00 to 6.00 | 5.00 to 6.00 |
| CC[C@H](C)Nc1ncc2c(OCC(F)(F)F)ncc([C@H]3CC[C@H](O)CC3)c2n1 [Compound 245] | 6.00 to 7.00 | ≥ 7.00 |
| CC[C@H](C)Nc1ncc2c(OC3CC(C)(C)NC(C)(C)C3)ncc([C@H]3CC[C@H](O)CC3)c2n1 [Compound 246] | 5.00 to 6.00 | ≥ 7.00 |
| CC[C@H](C)Nc1ncc2c(OC3C[C@@H](C)O[C@@H](C)C3)ncc([C@H]3CC[C@H](O)CC3)c2n1 (stereo partly drawn) [Compound 247] | 5.00 to 6.00 | 6.00 to 7.00 |
| CC[C@H](C)Nc1ncc2c(=O)n(CC34CCC(N)(CC3)CC4)cc([C@H]3CC[C@H](O)CC3)c2n1 [Compound 251] | 5.00 to 6.00 | ≥ 7.00 |
| CCOc1ncc(CC2CCN(C)CC2)c2nc(N[C@@H](C)CC)ncc12 [Compound 253] | 5.00 to 6.00 | 6.00 to 7.00 |
| CCOc1ncc(CC2CCN(C(=O)OC(C)(C)C)CC2)c2nc(N[C@@H](C)CC)ncc12 [Compound 254] | 5.00 to 6.00 | 5.00 to 6.00 |
| CC[C@H](C)Nc1ncc2c(C)ncc([C@H]3CC[C@H](O)CC3)c2n1 [Compound 255] | 5.00 to 6.00 | ≥ 7.00 |

| SMILES | pIC50 (FLT3) | pIC50 (TYRO3) |
| --- | --- | --- |
| CC[C@H](C)Nc1ncc2c(OCC34CCC(O)(CC3)CC4)ncc([C@H]3CC[C@H](O)CC3)c2n1 [Compound 256] | 5.00 to 6.00 | 6.00 to 7.00 |
| CC[C@H](C)Nc1ncc2c(=O)n(CC34CCC(O)(CC3)CC4)cc([C@H]3CC[C@H](O)CC3)c2n1 [Compound 257] | 5.00 to 6.00 | ≥ 7.00 |
| COC[C@H](C)Nc1ncc2c(OC3CC(C)(C)N(C)C(C)(C)C3)ncc([C@H]3CC[C@H](O)CC3)c2n1 [Compound 259] | 5.00 to 6.00 | ≥ 7.00 |
| COC[C@H](C)Nc1ncc2c(O[C@H]3CC[C@H](O)CC3)ncc([C@H]3CC[C@H](O)CC3)c2n1 [Compound 260] | 5.00 to 6.00 | ≥ 7.00 |
| CC[C@H](C)Nc1ncc2c(O[C@H]3CC[C@H](C(C)(C)O)CC3)ncc([C@H]3CC[C@H](O)CC3)c2n1 [Compound 261] | 6.00 to 7.00 | 6.00 to 7.00 |
| O[C@H]1CC[C@H](c2cnc(OC3CCNCC3)c3cnc(Nc4ccccc4F)nc32)CC1 [Compound 262] | 6.00 to 7.00 | ≥ 7.00 |
| CC[C@H](C)Nc1ncc2c(=O)n(C[C@@H]3COCCN3C)cc([C@H]3CC[C@H](O)CC3)c2n1 [Compound 263] | 5.00 to 6.00 | 6.00 to 7.00 |
| CC[C@H](C)Nc1ncc2c(=O)n(CC34CCC(N(C)C)(CC3)CC4)cc([C@H]3CC[C@H](O)CC3)c2n1 [Compound 264] | 5.00 to 6.00 | ≥ 7.00 |
| CC[C@H](C)Nc1ncc2c(=O)n(C[C@H]3COCCN3C)cc([C@H]3CC[C@H](O)CC3)c2n1 [Compound 265] | 5.00 to 6.00 | 6.00 to 7.00 |
| CC[C@H](C)Nc1ncc2c(=O)n([C@H]3CC[C@H](N(C)C)C3)cc([C@H]3CC[C@H](O)CC3)c2n1 [Compound 266] | 5.00 to 6.00 | ≥ 7.00 |
| CC[C@H](C)Nc1ncc2c(O[C@H]3CC[C@H](N(C)C)C3)ncc([C@H]3CC[C@H](O)CC3)c2n1 [Compound 267] | 6.00 to 7.00 | ≥ 7.00 |
| CC(C)(C)Nc1ncc2c(OC3CCNCC3)ncc([C@H]3CC[C@H](O)CC3)c2n1 [Compound 268] | 5.00 to 6.00 | 6.00 to 7.00 |
| O[C@H]1CC[C@H](c2cnc(OC3CCNCC3)c3cnc(Nc4ccc(F)cc4)nc32)CC1 [Compound 269] | ≥ 7.00 | ≥ 7.00 |
| O[C@H]1CC[C@H](c2cnc(OC3CCNCC3)c3cnc(Nc4cccc(F)c4)nc32)CC1 [Compound 270] | ≥ 7.00 | ≥ 7.00 |
| CC[C@H](C)Nc1ncc2c(=O)n(-c3ccc(N)cc3)cc([C@H]3CC[C@H](O)CC3)c2n1 [Compound 271] | 5.00 to 6.00 | 6.00 to 7.00 |
| COC(=O)c1ccc(Nc2ncc3c(OC4CCNCC4)ncc([C@H]4CC[C@H](O)CC4)c3n2)cc1 [Compound 272] | 6.00 to 7.00 | ≥ 7.00 |
| CCOc1ncc([C@H]2CC[C@H](O)CC2)c2nc(N[C@@H](C)COC)ncc12 [Compound 273] | 5.00 to 6.00 | 6.00 to 7.00 |
| CC(C)Nc1ncc2c(OC3CCOCC3)ncc(-c3cccc(CC#N)c3)c2n1 [Compound 274] | 5.00 to 6.00 | 6.00 to 7.00 |
| CC[C@H](C)Nc1ncc2c(OC3C[C@@H](C)O[C@@H](C)C3)ncc([C@H]3CC[C@H](O)CC3)c2n1 (stereo partly drawn) [Compound 275] | 5.00 to 6.00 | 6.00 to 7.00 |
